The text below walks through data of patent publication US9108903B2, “Amides as modulators of sodium channels” (VERTEX PHARMACEUTICALS INCORPORATED, priority 2013, dated 2015).

pIC50: −log10 of the molar value.

In the assay the target is human Nav1.8 (Homo sapiens (Human), UniProt Q9Y5Y9). The assay can be described thus: E-VIPR optical membrane potential assay with electrical stimulation. It is filed as cell-based. The following applies: HEK cells expressing human Nav1.8. The text has this: Assays for Detecting and Measuring NaV Inhibition Properties of Compounds E-VIPR Optical Membrane Potential Assay Method with Electrical Stimulation
Sequence of human Nav1.8 (Q9Y5Y9 whole entry): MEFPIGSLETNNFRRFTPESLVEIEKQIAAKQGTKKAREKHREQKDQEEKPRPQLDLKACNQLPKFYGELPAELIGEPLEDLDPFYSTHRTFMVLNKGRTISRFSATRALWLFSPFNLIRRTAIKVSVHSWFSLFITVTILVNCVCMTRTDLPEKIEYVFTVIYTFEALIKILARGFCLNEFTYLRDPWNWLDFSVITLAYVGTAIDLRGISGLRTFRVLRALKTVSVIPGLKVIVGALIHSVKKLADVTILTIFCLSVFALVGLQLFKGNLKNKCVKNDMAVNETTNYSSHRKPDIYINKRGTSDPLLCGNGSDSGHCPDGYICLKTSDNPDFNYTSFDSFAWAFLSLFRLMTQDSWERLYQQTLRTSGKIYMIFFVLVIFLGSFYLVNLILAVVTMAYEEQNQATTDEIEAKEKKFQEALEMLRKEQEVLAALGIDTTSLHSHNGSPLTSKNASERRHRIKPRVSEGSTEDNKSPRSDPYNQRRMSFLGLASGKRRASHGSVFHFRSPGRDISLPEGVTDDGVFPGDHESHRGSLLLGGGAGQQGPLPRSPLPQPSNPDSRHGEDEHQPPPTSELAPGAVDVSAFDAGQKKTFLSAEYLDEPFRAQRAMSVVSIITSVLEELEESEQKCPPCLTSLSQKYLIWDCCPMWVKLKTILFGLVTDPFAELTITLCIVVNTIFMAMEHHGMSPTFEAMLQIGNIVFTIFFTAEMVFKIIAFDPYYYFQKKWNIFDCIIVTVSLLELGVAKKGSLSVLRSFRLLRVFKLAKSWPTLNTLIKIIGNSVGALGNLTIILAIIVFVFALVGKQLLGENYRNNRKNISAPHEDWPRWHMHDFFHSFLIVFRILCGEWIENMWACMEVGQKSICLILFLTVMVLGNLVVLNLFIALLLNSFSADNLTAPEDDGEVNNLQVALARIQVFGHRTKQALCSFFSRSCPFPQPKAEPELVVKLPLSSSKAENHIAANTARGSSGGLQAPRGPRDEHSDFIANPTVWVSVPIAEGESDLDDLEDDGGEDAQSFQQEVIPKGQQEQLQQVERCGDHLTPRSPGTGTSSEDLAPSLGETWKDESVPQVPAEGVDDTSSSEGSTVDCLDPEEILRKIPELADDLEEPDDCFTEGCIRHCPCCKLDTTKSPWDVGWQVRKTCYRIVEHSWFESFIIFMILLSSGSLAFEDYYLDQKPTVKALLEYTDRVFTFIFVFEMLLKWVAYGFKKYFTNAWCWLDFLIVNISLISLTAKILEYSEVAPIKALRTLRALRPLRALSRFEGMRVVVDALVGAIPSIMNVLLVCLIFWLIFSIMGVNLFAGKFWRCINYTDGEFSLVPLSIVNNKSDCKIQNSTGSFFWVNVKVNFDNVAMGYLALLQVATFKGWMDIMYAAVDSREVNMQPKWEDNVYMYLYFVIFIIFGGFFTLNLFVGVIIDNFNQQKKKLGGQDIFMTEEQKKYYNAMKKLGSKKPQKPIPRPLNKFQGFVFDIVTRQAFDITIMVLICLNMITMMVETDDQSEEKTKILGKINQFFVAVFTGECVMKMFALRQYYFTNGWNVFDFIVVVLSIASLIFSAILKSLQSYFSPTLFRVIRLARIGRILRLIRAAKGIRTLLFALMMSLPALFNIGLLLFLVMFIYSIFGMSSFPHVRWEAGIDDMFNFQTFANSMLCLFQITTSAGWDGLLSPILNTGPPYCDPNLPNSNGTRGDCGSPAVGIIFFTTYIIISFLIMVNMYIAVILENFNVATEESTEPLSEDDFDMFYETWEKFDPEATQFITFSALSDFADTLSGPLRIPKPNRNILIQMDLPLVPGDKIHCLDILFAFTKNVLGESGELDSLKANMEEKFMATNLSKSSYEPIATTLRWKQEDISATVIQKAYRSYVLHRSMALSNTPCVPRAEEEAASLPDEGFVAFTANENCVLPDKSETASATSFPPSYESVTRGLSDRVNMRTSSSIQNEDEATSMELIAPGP
Sodium channels are voltage-dependent proteins that can be activated by inducing membrane voltage changes by applying electric fields. The electrical stimulation instrument and methods of use are described in Ion Channel Assay Methods PCT/US01/21652, herein incorporated by reference and are referred to as E-VIPR. The instrument comprises a microtiter plate handler, an optical system for exciting the coumarin dye while simultaneously recording the coumarin and oxonol emissions, a waveform generator, a current- or voltage-controlled amplifier, and a device for inserting electrodes in well. Under integrated computer control, this instrument passes user-programmed electrical stimulus protocols to cells within the wells of the microtiter plate.
24 hours before the assay on E-VIPR, HEK cells expressing human Nav1.8 were seeded in 384-well poly-lysine coated plates at 15,000-20,000 cells per well. HEK cells were grown in media (exact composition is specific to each cell type and NaV subtype) supplemented with 10% FBS (Fetal Bovine Serum, qualified; GibcoBRL #16140-071) and 1% Pen-Strep (Penicillin-Streptomycin; GibcoBRL #15140-122). Cells were grown in vented cap flasks, in 90% humidity and 5% CO2.
100 mg/mL Pluronic F-127 (Sigma #P2443), in dry DMSO
Compound Plates: 384-well round bottom plate, e.g. Corning 384-well Polypropylene Round Bottom #3656
Cell Plates: 384-well tissue culture treated plate, e.g. Greiner #781091-1B
Bath1 buffer: Glucose 10 mM (1.8 g/L), Magnesium Chloride (Anhydrous), 1 mM (0.095 g/L), Calcium Chloride, 2 mM (0.222 g/L), HEPES 10 mM (2.38 g/L), Potassium Chloride, 4.5 mM (0.335 g/L), Sodium Chloride 160 mM (9.35 g/L).
Hexyl Dye Solution: Bath1 Buffer+0.5% β-cyclodextrin (make this prior to use, Sigma #C4767), 8 μM CC2-DMPE+2.5 μM DiSBAC6(3). To make the solution added volume of 10% Pluronic F127 stock equal to volumes of CC2-DMPE+DiSBAC6(3). The order of preparation was first mix Pluronic and CC2-DMPE, then added DiSBAC6(3) while vortexing, then added Bath1+β-Cyclodextrin.
1) Pre-spotted compounds (in neat DMSO) into compound plates. Vehicle control (neat DMSO), the positive control (20 mM DMSO stock tetracaine, 125 μM final in assay) and test compounds were added to each well at 160× desired final concentration in neat DMSO. Final compound plate volume was 80 μL (80-fold intermediate dilution from 1 μL DMSO spot; 160-fold final dilution after transfer to cell plate). Final DMSO concentration for all wells in assay was 0.625%.
2) Prepared Hexyl Dye Solution.
3) Prepared cell plates. On the day of the assay, medium was aspirated and cells were washed three times with 100 μL of Bath1 Solution, maintaining 25 μL residual volume in each well.
4) Dispensed 25 μL per well of Hexyl Dye Solution into cell plates. Incubated for 20-35 minutes at room temp or ambient conditions.
5) Dispensed 80 μL per well of Bath1 into compound plates. Acid Yellow-17 (1 mM) was added and Potassium Chloride was altered from 4.5 to 20 mM depending on the NaV subtype and assay sensitivity.
6) Washed cell plates three times with 100 μL per well of Bath1, leaving 25 μL of residual volume. Then transfered 25 uL per well from Compound Plates to Cell Plates. Incubated for 20-35 minutes at room temp/ambient condition.
7) Read Plate on E-VIPR. Used the current-controlled amplifier to deliver stimulation wave pulses for 10 seconds and a scan rate of 200 Hz. A pre-stimulus recording was performed for 0.5 seconds to obtain the un-stimulated intensities baseline. The stimulatory waveform was followed by 0.5 seconds of post-stimulation recording to examine the relaxation to the resting state.
Data was analyzed and reported as normalized ratios of emission intensities measured in the 460 nm and 580 nm channels. The response as a function of time was reported as the ratios obtained using the following formula: […]
Regarding `O=C(O)c1ccc(NC(=O)c2cc(Cl)c(Cl)cc2Oc2ccccc2)cn1` [Compound 33, 5-(4,5-dichloro-2-phenoxybenzamido)picolinic acid], the pIC50 was 6.72.

Take `COc1ccc(Oc2cc(Cl)c(Cl)cc2C(=O)Nc2ccc(C(=O)O)nc2)c(F)c1` [Compound 34, 5-(4,5-dichloro-2-(2-fluoro-4-methoxyphenoxy)benzamido)picolinic acid]: the pIC50 was 7.28.

For `O=C(O)c1ccc(NC(=O)c2cc(Cl)c(Cl)cc2Oc2ccc(OCC(F)(F)F)cc2)cn1` [Compound 35, 5-(4,5-dichloro-2-(4-(2,2,2-trifluoroethoxy)phenoxy)benzamido)picolinic acid], the pIC50 is 7.30.

Molecule `COc1cc(Cl)ccc1Oc1cc(Cl)c(Cl)cc1C(=O)Nc1ccc(C(=O)O)nc1` [Compound 36, 5-(4,5-dichloro-2-(4-chloro-2-methoxyphenoxy)benzamido)picolinic acid] had a pIC50 of 7.41.

Molecule `O=C(O)c1ccc(NC(=O)c2cc(Cl)c(Cl)cc2Oc2ccccc2OC(F)F)cn1` [Compound 37, 5-(4,5-dichloro-2-(2-(difluoromethoxy)phenoxy)benzamido)picolinic acid] had a pIC50 of 7.34.

In turn, `Cc1cc(Cl)ccc1Oc1cc(Cl)c(Cl)cc1C(=O)Nc1ccc(C(=O)O)nc1` [Compound 38, 5-(4,5-dichloro-2-(4-chloro-2-methylphenoxy)benzamido)picolinic acid] had a pIC50 of 7.13.

`COc1ccc(Oc2cc(Cl)c(Cl)cc2C(=O)Nc2ccc(C(=O)O)nc2)c(OC)c1` [Compound 39, 5-(4,5-dichloro-2-(2,4-dimethoxyphenoxy)benzamido)picolinic acid] gave a pIC50 of 7.82.

The molecule `COc1ccc(Oc2cc(Cl)c(Cl)cc2C(=O)Nc2ccc(C(=O)O)nc2)cc1F` [Compound 40, 5-(4,5-dichloro-2-(3-fluoro-4-methoxyphenoxy)benzamido)picolinic acid] showed a pIC50 of 7.47. Compared with the last molecule, the pIC50 is 0.35 log units lower.

For the molecule `O=C(O)c1ccc(NC(=O)c2cc(Cl)c(Cl)cc2Oc2ccc(F)cc2Cl)cn1` [Compound 41, 5-(4,5-dichloro-2-(2-chloro-4-fluorophenoxy)benzamido)picolinic acid], the pIC50 is 7.92.

`O=C(O)c1ccc(NC(=O)c2cc(Cl)c(Cl)cc2Oc2ccc(F)cc2F)cn1` [Compound 42, 5-(4,5-dichloro-2-(2,4-difluorophenoxy)benzamido)picolinic acid] had a pIC50 of 7.51.

In the case of `COc1ccc(Oc2cc(Cl)c(Cl)cc2C(=O)Nc2ccc(C(=O)O)nc2)c(Cl)c1` [Compound 43, 5-(4,5-dichloro-2-(2-chloro-4-methoxyphenoxy)benzamido)picolinic acid], the pIC50 is 7.19.

`O=C(O)c1ccc(NC(=O)c2cc(Cl)c(Cl)cc2Oc2ccc(OC(F)(F)F)cc2)cn1` [Compound 44, 5-(4,5-dichloro-2-(4-(trifluoromethoxy)phenoxy)benzamido)picolinic acid] gave a pIC50 of 7.70.

The molecule `COc1ccccc1Oc1cc(C(F)(F)F)cc(C(F)(F)F)c1C(=O)Nc1ccc(C(=O)O)nc1` [Compound 45, 5-(2-(2-methoxyphenoxy)-4,6-bis(trifluoromethyl)benzamido)picolinic acid] gave a pIC50 of 7.19.

Turning to `COc1ccc(Oc2cc(C(F)(F)F)cc(C(F)(F)F)c2C(=O)Nc2ccc(C(=O)O)nc2)cc1` [Compound 46, 5-(2-(4-methoxyphenoxy)-4,6-bis(trifluoromethyl)benzamido)picolinic acid], the pIC50 is 7.18.

`Cc1cc(F)ccc1Oc1cc(C(F)(F)F)cc(C(F)(F)F)c1C(=O)Nc1ccc(C(=O)O)nc1` [Compound 47, 5-(2-(4-fluoro-2-methylphenoxy)-4,6-bis(trifluoromethyl)benzamido)picolinic acid] gave a pIC50 of 7.38.

In the case of `COc1cc(F)ccc1Oc1cc(C(F)(F)F)cc(C(F)(F)F)c1C(=O)Nc1ccc(C(=O)O)nc1` [Compound 48, 5-(2-(4-fluoro-2-methoxyphenoxy)-4,6-bis(trifluoromethyl)benzamido)picolinic acid], the pIC50 is 7.85.

Regarding `COc1ccc(Oc2cc(C(F)(F)F)cc(C(F)(F)F)c2C(=O)Nc2ccc(C(=O)O)nc2)c(OC)c1` [Compound 49, 5-(2-(2,4-dimethoxyphenoxy)-4,6-bis(trifluoromethyl)benzamido)picolinic acid], the pIC50 was 8.22.

Molecule `O=C(O)c1ccc(NC(=O)c2c(Oc3ccc(F)cc3)cc(C(F)(F)F)cc2C(F)(F)F)cn1` [Compound 50, 5-(2-(4-fluorophenoxy)-4,6-bis(trifluoromethyl)benzamido)picolinic acid] gave a pIC50 of 6.89.

For `COc1cc(F)ccc1Oc1cc(Cl)c(Cl)cc1C(=O)Nc1ccc(C(=O)O)nc1` [Compound 51, 5-(4,5-dichloro-2-(4-fluoro-2-methoxyphenoxy)benzamido)picolinic acid], the pIC50 is 8.05.

For `COc1cc(F)ccc1Oc1cc(C(C)(C)C)ccc1C(=O)Nc1ccc(C(=O)O)nc1` [Compound 52, 5-(4-(tert-butyl)-2-(4-fluoro-2-methoxyphenoxy)benzamido)picolinic acid], the pIC50 was 7.51.

Molecule `Cc1cc(F)ccc1Oc1cc(C(C)(C)C)ccc1C(=O)Nc1ccc(C(=O)O)nc1` [Compound 53, 5-(4-(tert-butyl)-2-(4-fluoro-2-methylphenoxy)benzamido)picolinic acid] gave a pIC50 of 7.34.

`CC(C)(C)c1ccc(C(=O)Nc2ccc(C(=O)O)nc2)c(Oc2ccc(F)cc2)c1` [Compound 54, 5-(4-(tert-butyl)-2-(4-fluorophenoxy)benzamido)picolinic acid] had a pIC50 of 6.74.

Molecule `O=C(O)c1ccc(NC(=O)c2ccccc2Oc2ccc(F)cc2)cn1` [Compound 55, 5-(2-(4-fluorophenoxy)benzamido)picolinic acid] gave a pIC50 of 5.36.

As for `O=C(O)c1ccc(NC(=O)c2ccc(C(F)(F)F)cc2Oc2ccc(F)cc2)cn1` [Compound 56, 5-(2-(4-fluorophenoxy)-4-(trifluoromethyl)benzamido)picolinic acid], the pIC50 is 6.60.

Turning to `COc1cc(F)ccc1Oc1ccc(C(F)(F)F)cc1C(=O)Nc1ccc(C(=O)O)nc1` [Compound 57, 5-(2-(4-fluoro-2-methoxyphenoxy)-5-(trifluoromethyl)benzamido)picolinic acid], the pIC50 was 7.02.

Molecule `O=C(O)c1ccc(NC(=O)c2cc(C(F)(F)F)ccc2Oc2ccc(F)cc2Cl)cn1` [Compound 58, 5-(2-(2-chloro-4-fluorophenoxy)-5-(trifluoromethyl)benzamido)picolinic acid] showed a negative logarithm of the IC50 (pIC50) of 7.10. The pIC50 values of the last two molecules are within 0.2 log units of each other.

As for `COc1ccc(F)cc1Oc1ccc(C(F)(F)F)cc1C(=O)Nc1ccc(C(=O)O)nc1` [Compound 59, 5-(2-(5-fluoro-2-methoxyphenoxy)-5-(trifluoromethyl)benzamido)picolinic acid], the pIC50 is 6.13. This pIC50 is 0.97 log units lower than that of the molecule before.

`O=C(O)c1ccc(NC(=O)c2cc(C(F)(F)F)ccc2Oc2ccccc2OC(F)F)cn1` [Compound 60, 5-(2-(2-(difluoromethoxy)phenoxy)-5-(trifluoromethyl)benzamido)picolinic acid] gave a pIC50 of 6.19. This pIC50 and that of the molecule before are within 0.2 log units of each other.

On to `Cc1cc(Cl)ccc1Oc1ccc(C(F)(F)F)cc1C(=O)Nc1ccc(C(=O)O)nc1` [Compound 61, 5-(2-(4-chloro-2-methylphenoxy)-5-(trifluoromethyl)benzamido)picolinic acid], for which the pIC50 is 6.84. This pIC50 lies 0.65 log units higher than the previous one.

As to `COc1ccccc1Oc1ccc(C(F)(F)F)cc1C(=O)Nc1ccc(C(=O)O)nc1` [Compound 62, 5-(2-(2-methoxyphenoxy)-5-(trifluoromethyl)benzamido)picolinic acid], the pIC50 is 6.43.

For orientation: pIC50 means the IC50 on a negative log10 scale, so that one unit is a factor of ten. The low end stands for a large IC50, the high end for a small IC50.
